Measurements: BindingDB's records for doi:10.1016/j.ejmech.2020.112422 (China Medical University, 2020)

Key:
[1] = Inhibition of ABCB1 in FLp-In-293 cells assessed as potentiation of doxorubicin-induced cytotoxicity by measuring doxorubicin IC50 at 2.5 uM measured after 72 hrs by SRB assay (Rvb = 80 +/- 10 nM)
[2] = Inhibition of ABCB1 in FLp-In-293 cells assessed as potentiation of vincristine-induced cytotoxicity by measuring vincristine IC50 at 2.5 uM measured after 72 hrs by SRB assay (Rvb = 6 +/- 0.2 nM)
[3] = Inhibition of human full-length ABCB1 expressed in FLp-In-293 cells assessed as potentiation of paclitaxel-induced cytotoxicity by measuring paclitaxel IC50 at 2.5 uM measured after 72 hrs by SRB assay (Rvb = 797 +/- 73 nM)
[4] = Inhibition of ABCB1 in human HeLa S3 cells assessed as potentiation of paclitaxel-induced cytotoxicity by measuring paclitaxel IC50 at 5 uM measured after 72 hrs by SRB assay (Rvb = 26.50 +/- 4.1 nM)
[5] = Inhibition of human full-length ABCB1 expressed in FLp-In-293 cells assessed as potentiation of doxorubicin-induced cytotoxicity by measuring doxorubicin IC50 at 5 uM measured after 72 hrs by SRB assay (Rvb = 2264 +/- 196 nM)
[6] = Inhibition of ABCB1 in FLp-In-293 cells assessed as potentiation of paclitaxel-induced cytotoxicity by measuring paclitaxel IC50 at 5 uM measured after 72 hrs by SRB assay (Rvb = 11.8 +/- 1.13 nM)
[7] = Inhibition of ABCB1 in human KB-VIN cells assessed as potentiation of vincristine-induced cytotoxicity by measuring vincristine IC50 at 5 uM measured after 72 hrs by SRB assay (Rvb = 2867 +/- 142 nM)
[8] = Inhibition of ABCB1 in human KB-VIN cells assessed as potentiation of vincristine-induced cytotoxicity by measuring vincristine IC50 at 2.5 uM measured after 72 hrs by SRB assay (Rvb = 2867 +/- 142 nM)
[9] = Inhibition of ABCB1 in FLp-In-293 cells assessed as potentiation of doxorubicin-induced cytotoxicity by measuring doxorubicin IC50 at 5 uM measured after 72 hrs by SRB assay (Rvb = 80 +/- 10 nM)
[10] = Inhibition of ABCB1 in human HeLa S3 cells assessed as potentiation of doxorubicin-induced cytotoxicity by measuring doxorubicin IC50 at 5 uM measured after 72 hrs by SRB assay (Rvb = 242 +/- 5 nM)
[11] = Inhibition of ABCB1 in human KB-VIN cells assessed as potentiation of paclitaxel-induced cytotoxicity by measuring paclitaxel IC50 at 5 uM measured after 72 hrs by SRB assay (Rvb = 1762 +/- 63 nM)
[12] = Inhibition of ABCB1 in human KB-VIN cells assessed as potentiation of paclitaxel-induced cytotoxicity by measuring paclitaxel IC50 at 2.5 uM measured after 72 hrs by SRB assay (Rvb = 1762 +/- 63 nM)
[13] = Inhibition of ABCB1 in FLp-In-293 cells assessed as potentiation of vincristine-induced cytotoxicity by measuring vincristine IC50 at 5 uM measured after 72 hrs by SRB assay (Rvb = 6 +/- 0.2 nM)
[14] = Inhibition of ABCB1 in human KB-VIN cells assessed as potentiation of doxorubicin-induced cytotoxicity by measuring doxorubicin IC50 at 5 uM measured after 72 hrs by SRB assay (Rvb = 4736 +/- 59 nM)
[15] = Inhibition of ABCB1 in human KB-VIN cells assessed as potentiation of doxorubicin-induced cytotoxicity by measuring doxorubicin IC50 at 2.5 uM measured after 72 hrs by SRB assay (Rvb = 4736 +/- 59 nM)
[16] = Inhibition of ABCB1 in FLp-In-293 cells assessed as potentiation of paclitaxel-induced cytotoxicity by measuring paclitaxel IC50 at 2.5 uM measured after 72 hrs by SRB assay (Rvb = 11.8 +/- 1.13 nM)
[17] = Inhibition of ABCB1 in human HeLa S3 cells assessed as potentiation of vincristine-induced cytotoxicity by measuring vincristine IC50 at 2.5 uM measured after 72 hrs by SRB assay (Rvb = 4.55 +/- 0.28 nM)
[18] = Inhibition of human full-length ABCB1 expressed in FLp-In-293 cells assessed as potentiation of doxorubicin-induced cytotoxicity by measuring doxorubicin IC50 at 2.5 uM measured after 72 hrs by SRB assay (Rvb = 2264 +/- 196 nM)
[19] = Inhibition of human full-length ABCB1 expressed in FLp-In-293 cells assessed as potentiation of vincristine-induced cytotoxicity by measuring vincristine IC50 at 5 uM measured after 72 hrs by SRB assay (Rvb = 823 +/- 16 nM)
[20] = Inhibition of human full-length ABCB1 expressed in FLp-In-293 cells assessed as potentiation of vincristine-induced cytotoxicity by measuring vincristine IC50 at 2.5 uM measured after 72 hrs by SRB assay (Rvb = 823 +/- 16 nM)
[21] = Inhibition of ABCB1 in human HeLa S3 cells assessed as potentiation of doxorubicin-induced cytotoxicity by measuring doxorubicin IC50 at 2.5 uM measured after 72 hrs by SRB assay (Rvb = 242 +/- 5 nM)
[22] = Inhibition of ABCB1 in human HeLa S3 cells assessed as potentiation of vincristine-induced cytotoxicity by measuring vincristine IC50 at 5 uM measured after 72 hrs by SRB assay (Rvb = 4.55 +/- 0.28 nM)
[23] = Inhibition of ABCB1 in human HeLa S3 cells assessed as potentiation of paclitaxel-induced cytotoxicity by measuring paclitaxel IC50 at 2.5 uM measured after 72 hrs by SRB assay (Rvb = 26.50 +/- 4.1 nM)
[24] = Inhibition of human full-length ABCB1 expressed in FLp-In-293 cells assessed as potentiation of paclitaxel-induced cytotoxicity by measuring paclitaxel IC50 at 5 uM measured after 72 hrs by SRB assay (Rvb = 797 +/- 73 nM)

Compound: COc1ccc(-c2cc(OC(C)=O)c3c(-c4cccs4)c(NC(=O)c4ccccc4C)oc3c2)cc1
- IC50 [1]: 89 nM
- IC50 [2]: 0.88 nM
- IC50 [3]: 109 nM
- IC50 [4]: 8.9 nM
- IC50 [5]: 478 nM
- IC50 [6]: 7.2 nM
- IC50 [7]: 6.5 nM
- IC50 [8]: 36 nM
- IC50 [9]: 82 nM
- IC50 [10]: 103 nM
- IC50 [11]: 46 nM
- IC50 [12]: 345 nM
- IC50 [13]: 0.83 nM
- IC50 [14]: 397 nM
- IC50 [15]: 1550 nM
- IC50 [16]: 9.1 nM
- IC50 [17]: 5.1 nM
- IC50 [18]: 525 nM
- IC50 [19]: 8.9 nM
- IC50 [20]: 84 nM
- IC50 [21]: 116 nM
- IC50 [22]: 3.7 nM
- IC50 [23]: 11 nM
- IC50 [24]: 55 nM

Compound: COc1ccc(-c2cc(OC(C)=O)c3c(-c4cccs4)c(NC(=O)c4ccccc4Cl)oc3c2)cc1
- IC50 [1]: 77 nM
- IC50 [2]: 0.88 nM
- IC50 [3]: 602 nM
- IC50 [4]: 8.8 nM
- IC50 [5]: 502 nM
- IC50 [6]: 6.3 nM
- IC50 [7]: 7.6 nM
- IC50 [8]: 37 nM
- IC50 [9]: 73 nM
- IC50 [10]: 86 nM
- IC50 [11]: 21 nM
- IC50 [12]: 80 nM
- IC50 [13]: 0.82 nM
- IC50 [14]: 102 nM
- IC50 [16]: 6.4 nM
- IC50 [17]: 3.9 nM
- IC50 [18]: 564 nM
- IC50 [19]: 9.2 nM
- IC50 [20]: 114 nM
- IC50 [21]: 111 nM
- IC50 [22]: 2.2 nM
- IC50 [23]: 9.6 nM
- IC50 [24]: 91 nM

Compound: COc1ccc(-c2cc(OC(C)=O)c3c(-c4cccs4)c(NC(=O)c4cccc(F)c4)oc3c2)cc1
- IC50 [1]: 81 nM
- IC50 [2]: 6.3 nM
- IC50 [3]: 621 nM
- IC50 [4]: 11 nM
- IC50 [5]: 504 nM
- IC50 [6]: 5.3 nM
- IC50 [7]: 12 nM
- IC50 [8]: 60 nM
- IC50 [9]: 82 nM
- IC50 [10]: 87 nM
- IC50 [11]: 48 nM
- IC50 [12]: 116 nM
- IC50 [13]: 3.7 nM
- IC50 [14]: 1400 nM
- IC50 [15]: 2210 nM
- IC50 [16]: 6.6 nM
- IC50 [17]: 5.4 nM
- IC50 [18]: 559 nM
- IC50 [19]: 25 nM
- IC50 [20]: 96 nM
- IC50 [21]: 93 nM
- IC50 [22]: 4.7 nM
- IC50 [23]: 12 nM
- IC50 [24]: 77 nM

Compound: COc1ccc(-c2cc(OC(C)=O)c3c(-c4cccs4)c(N(C(C)=O)C(C)=O)oc3c2)cc1
- IC50 [1]: 87 nM
- IC50 [2]: 4.5 nM
- IC50 [3]: 647 nM
- IC50 [4]: 14 nM
- IC50 [5]: 677 nM
- IC50 [6]: 10 nM
- IC50 [7]: 314 nM
- IC50 [8]: 501 nM
- IC50 [9]: 82 nM
- IC50 [10]: 102 nM
- IC50 [11]: 597 nM
- IC50 [12]: 652 nM
- IC50 [13]: 4 nM
- IC50 [14]: 1500 nM
- IC50 [15]: 1740 nM
- IC50 [16]: 11 nM
- IC50 [17]: 5.7 nM
- IC50 [18]: 874 nM
- IC50 [19]: 582 nM
- IC50 [20]: 663 nM
- IC50 [21]: 105 nM
- IC50 [22]: 5.2 nM
- IC50 [23]: 14 nM
- IC50 [24]: 645 nM
